From patent US20140142333A1, “NOVEL ANILINE DERIVATIVES AND USE THEREOF” (NEOMICS Co, Ltd., priority 2011, published 2014)

Columns and labels:
AIMP2-DX2 [1] = biological target: T1, AIMP2-DX2 (Homo sapiens, UniProt Q13155); assay: luciferase assay of pGL-DX-2 transfected A549 cells; conditions: luciferase activity 4 hours after compound treatment; N.C (DMSO) 20089; lower = inhibition
T1 sequence (Q13155 1-251 isoform Q13155-2): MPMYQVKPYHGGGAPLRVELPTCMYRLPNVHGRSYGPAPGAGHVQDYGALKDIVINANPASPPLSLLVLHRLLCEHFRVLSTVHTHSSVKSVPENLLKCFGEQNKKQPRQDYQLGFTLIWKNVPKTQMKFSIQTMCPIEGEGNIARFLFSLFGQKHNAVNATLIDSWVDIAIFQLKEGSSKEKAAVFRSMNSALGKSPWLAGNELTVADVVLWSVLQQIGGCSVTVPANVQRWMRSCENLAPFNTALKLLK

AIMP2-DX2 [2] = biological target: T1, AIMP2-DX2; assay: luciferase assay of pGL-DX-2 transfected H460 cells; conditions: luciferase activity 4 hours after compound treatment; N.C (DMSO) 8627; lower = inhibition
Description: In order to screen for a compound specifically inhibiting the activity of AIMP2-DX2, from a compound library bought from ChemDive (US), the inventors' transfected lung cancer cell line, H460, with pGL2-DX2 (see FIG. 2). After culturing the cell line for 24 hours, they treated it with a compound. Then, after further culturing for 4 hours, luciferase activity was measured through a luciferase assay kit according to a manufacturer protocol (Promega, US), by using a luminometer.
After further culturing for 4 hours, luciferase activity was measured.

SMILES	AIMP2-DX2 activity in A549 cells (AIMP2-DX2 [1])	AIMP2-DX2 activity in H460 cells (AIMP2-DX2 [2])
Cc1ccc(NC(=O)/C=C/C(=O)Nc2ccc(C)c(C)c2)cc1C [compound 1, N1,N4-bis(3,4-dimethylphenyl)fumaramide]	14179	7101
Cc1cccc(NC(=O)/C=C/C(=O)Nc2cccc(C)c2)c1 [compound 2, N1,N4-di-m-tolylfumaramide]	14072	7292
Cc1ccc(C)c(NC(=O)/C=C\C(=O)Nc2ccc(C)c(C)c2)c1 [compound 3, N1-(2,5-dimethylphenyl)-N4-(3,4-dimethylphenyl)maleamide]	10043	7749
Cc1cccc(NC(=O)/C=C\C(=O)Nc2cccc(C)c2)c1 [compound 4, N1,N4-di-m-tolylmaleamide]	9605	8189
Cc1ccc(NC(=O)/C=C\C(=O)Nc2ccc(F)cc2C)cc1C [compound 5, N1-(3,4-dimethylphenyl)-N4-(4-fluoro-2-methylphenyl)maleamide]	9643	7427
Cc1ccc(NC(=O)/C=C\C(=O)Nc2ccc(C)c(F)c2)cc1C [compound 6, N1-(3,4-dimethylphenyl)-N4-(3-fluoro-4-methylphenyl)maleamide]	10551	8901
Cc1ccc(NC(=O)/C=C\C(=O)Nc2cc(Cl)cc(Cl)c2)cc1C [compound 7, N1-(3,5-dichlorophenyl)-N4-(3,4-dimethylphenyl)maleamide]	8268	5019
Cc1ccc(C)c(NC(=O)/C=C\C(=O)O)c1 [compound 8, (Z)-4-[(2,5-dimethylphenyl)amino]-4-oxobut-2-enoic acid]	6705	7648
Cc1cc(C)cc(NC(=O)/C=C\C(=O)O)c1 [compound 9, (Z)-4-[(3,5-dimethylphenyl)amino]-4-oxobut-2-enoic acid]	6786	7064
CCCCc1ccc(NC(=O)/C=C\C(=O)O)cc1 [compound 10, (Z)-4-[(4-butylphenyl)amino]-4-oxobut-2-enoic acid]	12399	8045
Cc1cccc(NC(=O)/C=C\C(=O)O)c1 [compound 11, (Z)-4-oxo-4-(m-tolylamino) but-2-enoic acid]	6328	7143
O=C(O)/C=C\C(=O)Nc1ccc(F)cc1 [compound 12, (Z)-4-[(4-fluorophenyl)amino]-4-oxobut-2-enoic acid]	7937	7031
O=C(O)/C=C\C(=O)Nc1cc(Cl)cc(Cl)c1 [compound 13, (Z)-4-[(3,5-dichlorophenyl)amino]-4-oxobut-2-enoic acid]	8049	7855
Cc1cc(Cl)cc(Cl)c1NC(=O)/C=C\C(=O)O [compound 14, (Z)-4-[(2,4-dichloro-6-methylphenyl)amino]-4-oxobut-2-enoic acid]	240	230
Cc1cc(C)cc(NC(=O)/C=C\C(=O)Nc2ccc(C)c(C)c2)c1 [compound 15, N1-(3,4-dimethylphenyl)-N4-(3,5-dimethylphenyl)maleamide]	6981	8621
CCCCc1cccc(NC(=O)/C=C\C(=O)Nc2ccc(C)c(C)c2)c1 [compound 16, N1-(3-butylphenyl)-N4-(3,4-dimethylphenyl)maleamide]	6871	7511
Cc1ccc(NC(=O)/C=C\C(=O)Nc2ccc(Br)cc2)cc1C [compound 17, N1-(4-bromophenyl)-N4-(3,4-dimethylphenyl)maleamide]	6975	5718

SMILES	AIMP2-DX2 activity in A549 cells (AIMP2-DX2 [1])	AIMP2-DX2 activity in H460 cells (AIMP2-DX2 [2])
COc1cccc(NC(=O)/C=C\C(=O)Nc2ccc(F)cc2)c1 [compound 18, N1-(4-fluorophenyl)-N4-(3-methoxyphenyl)maleamide]	4239	3246
CCc1cccc(NC(=O)/C=C\C(=O)Nc2ccc(F)cc2)c1 [compound 19, N1-(3-ethylphenyl)-N4-(4-fluorophenyl)maleamide]	3978	3715
Cc1ccc(NC(=O)/C=C\C(=O)O)cc1F [compound 20, (Z)-4-[(3-fluoro-4-methylphenyl)amino]-4-oxobut-2-enoic acid]	6446	7639
O=C(/C=C/C(=O)Nc1cc(Cl)cc(Cl)c1)Nc1cc(Cl)cc(Cl)c1 [compound 21, N1,N4-bis(3,5-dichlorophenyl)fumaramide]	7285	6061
O=C(/C=C/C(=O)Nc1ccc(Br)cc1)Nc1ccc(Br)cc1 [compound 22, N1,N4-bis(4-bromophenyl) fumaramide]	5647	6377
O=C(/C=C/C(=O)Nc1ccc(Cl)c(Cl)c1)Nc1ccc(Cl)c(Cl)c1 [compound 23, N1,N4-bis(3,4-dichlorophenyl)fumaramide]	5352	6391
Cc1ccc(NC(=O)/C=C/C(=O)Nc2ccc(C)c(F)c2)cc1F [compound 24, N1,N4-bis(3-fluoro-4-methylphenyl)fumaramide]	5812	7094
COc1ccc(NC(=O)/C=C\C(=O)Nc2ccc(OC)cc2)cc1 [compound 25, N1,N4-bis(4-methoxyphenyl) maleamide]	5152	6085
Cc1ccc(NC(=O)/C=C\C(=O)Nc2ccc(F)cc2)cc1F [compound 26, N1-(3-fluoro-4-methylphenyl)-N4-(4-fluorophenyl)maleamide]	6525	6428
Cc1cc(F)ccc1NC(=O)/C=C\C(=O)Nc1ccc(F)cc1C [compound 27, N1,N4-bis(4-fluoro-2-methylphenyl)maleamide]	5586	6029
COc1cccc(NC(=O)C(C)C(=O)Nc2cc(C)ccc2C)c1 (stereo not drawn) [compound 28, N1-(2,5-dimethylphenyl)-N3-(3-methoxyphenyl)-2-methylmalonamide]	6691	7722
Cc1cccc(NC(=O)/C=C\C(=O)Nc2ccc(F)cc2)c1 [compound 29, N1-(4-fluorophenyl)-N4-(m-tolyl)maleamide]	5662	5916
COc1cccc(NC(=O)C(C)C(=O)Nc2cc(C)cc(C)c2)c1 (stereo not drawn) [compound 30, N1-(3,5-dimethylphenyl)-N3-(3-methoxyphenyl)-2-methylmalonamide]	7291	7167
CCOC(=O)C(C)C(=O)Nc1ccc2cc3ccccc3cc2c1 (stereo not drawn) [compound 31, ethyl 3-(anthracen-2-ylamino)-2-methyl-3-oxopropanoate]	5771	6346
CCOC(=O)CC(=O)Nc1ccc(O)cc1Cl [compound 32, ethyl 3-[(2-chloro-4-hydroxyphenyl)amino]-3-oxopropanoate]	19889	4848
CCOC(=O)C(C)C(=O)Nc1ccc(O)cc1Cl (stereo not drawn) [compound 33, ethyl 3-[(2-chloro-4-hydroxyphenyl)amino]-2-methyl-3-oxopropanoate]	18631	5403
